≈ marks a conversion by molar mass, not a printed value.
Columns and labels:
P. aeruginosa PBP3 = target: T1, P. aeruginosa PBP3 (Pseudomonas aeruginosa, UniProt G3XD46); assay: Bocillin-FL fluorescence polarization competition binding assay, P. aeruginosa PBP3; details: fluorescence polarization competition binding assay using Bocillin-FL
T1 construct: made in house
Summary of the method: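 Binding of boronic acid inhibitors to purified Pseudomonas aeruginosa (PA01) PBP3 was measured by fluorescence polarization competition with Bocillin-FL, a fluorescent penicillin V. Reactions of 80 μl contained 0.75 μM PBP3 and 0.1 μM Bocillin-FL in 50 mM Hepes (pH 8.0), 300 mM NaCl and 5% (v/v) glycerol, in black 384-well plates. FP (Excitation 490 nm, Emission 520 nm) was read for up to 60 minutes. EC50 is the concentration that halves PBP-bound Bocillin-FL.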

N. gonorrhoeae WHO Z = assay: Liquid broth MIC in Fastidious broth; type: cell-based; details: Neisseria gonorrhoeae, read-out: Minimum Inhibitory Concentration, N. gonorrhoeae WHO Z
Summary of the method: (§1)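 Colonies were swabbed from chocolate agar after 24 h growth and standardised by optical density at 600 nm. Compounds were serially diluted twofold in Fastidious broth, and bacteria added to give 5×10^5 CFU/mL. After about 24 h at 36 °C in 5% CO2, the lowest concentration allowing under 10% growth was taken as MIC.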

N. gonorrhoeae WHO Q = assay: Liquid broth MIC in Fastidious broth; type: cell-based; details: Neisseria gonorrhoeae, read-out: Minimum Inhibitory Concentration, N. gonorrhoeae WHO Q
Summary of the method: as §1

T1 sequence (G3XD46 whole entry): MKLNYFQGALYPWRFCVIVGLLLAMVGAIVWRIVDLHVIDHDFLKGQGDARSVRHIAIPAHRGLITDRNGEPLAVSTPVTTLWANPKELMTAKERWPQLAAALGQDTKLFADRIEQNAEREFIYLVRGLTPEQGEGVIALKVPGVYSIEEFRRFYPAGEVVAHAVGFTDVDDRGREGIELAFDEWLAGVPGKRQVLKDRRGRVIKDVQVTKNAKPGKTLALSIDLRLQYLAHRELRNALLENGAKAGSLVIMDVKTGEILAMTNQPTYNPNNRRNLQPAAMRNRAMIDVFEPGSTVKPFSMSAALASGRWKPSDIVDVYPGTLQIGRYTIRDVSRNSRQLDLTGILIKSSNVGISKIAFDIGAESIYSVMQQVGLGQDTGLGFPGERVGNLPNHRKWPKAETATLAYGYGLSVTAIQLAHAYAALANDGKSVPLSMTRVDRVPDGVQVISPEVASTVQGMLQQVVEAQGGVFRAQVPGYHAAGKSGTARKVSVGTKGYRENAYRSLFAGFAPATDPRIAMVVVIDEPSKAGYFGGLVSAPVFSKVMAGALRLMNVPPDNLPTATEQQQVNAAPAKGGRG

CCN1CCN(C(=O)NC(C(=O)N[C@H]2Cc3cccc(C(=O)O)c3OB2O)c2cc(O)cc(O)c2)C(=O)C1=O (mixture of isomers) [Example 79, (3R)-3-(2-(3,5-dihydroxyphenyl)-2-(4-ethyl-2,3-dioxopiperazine-1-carboxamido)acetamido)-2-hydroxy-3,4-dihydro-2H-benzo[e][1,2]oxaborinine-8-carboxylic acid]
P. aeruginosa PBP3 Potency (P. aeruginosa PBP3): D (D represents a potency <10 μM)
MIC (N. gonorrhoeae WHO Z): 4 to 8 µg/mL
MIC (N. gonorrhoeae WHO Q): 4 to 8 µg/mL

NCCCN1CCN(C(=O)N[C@H](C(=O)N[C@H]2Cc3ccc(F)c(C(=O)O)c3OB2O)c2ccc(O)c(O)c2Cl)C(=O)C1=O (single isomer, unassigned) [Example 28]
P. aeruginosa PBP3 Potency (P. aeruginosa PBP3): B (B represents a potency between 30 μM and 500 μM inclusive)

O=C(NC(C(=O)N[C@H]1Cc2ccc(F)c(C(=O)O)c2OB1O)c1ncc(O)cc1F)c1c(F)cc(O)c(O)c1Cl (stereo partly drawn) [Example 10, (3R)-3-(2-(2-chloro-6-fluoro-3,4-dihydroxybenzamido)-2-(3-fluoro-5-hydroxypyridin-2-yl)acetamido)-7-fluoro-2-hydroxy-3,4-dihydro-2H-benzo[e][1,2]oxaborinine-8-carboxylic acid]
P. aeruginosa PBP3 Potency (P. aeruginosa PBP3): D (D represents a potency <10 μM)

CCN1CCN(C(=O)NC(C(=O)N[C@H]2Cc3cccc(C(=O)O)c3OB2O)c2ccc(O)c(NC(C)=O)c2)C(=O)C1=O (stereo partly drawn) [Example 17, (3R)-3-(2-(3-acetamido-4-hydroxyphenyl)-2-(4-ethyl-2,3-dioxopiperazine-1-carboxamido)acetamido)-2-hydroxy-3,4-dihydro-2H-benzo[e][1,2]oxaborinine-8-carboxylic acid]
P. aeruginosa PBP3 Potency (P. aeruginosa PBP3): D (D represents a potency <10 μM)

CCN1CCN(C(=O)NC(C(=O)N[C@H]2Cc3ccc(F)c(C(=O)O)c3OB2O)c2nc(N)sc2F)C(=O)C1=O (stereo partly drawn) [Example 18, (3R)-3-(2-(2-amino-5-fluorothiazol-4-yl)-2-(4-ethyl-2,3-dioxopiperazine-1-carboxamido)acetamido)-7-fluoro-2-hydroxy-3,4-dihydro-2H-benzo[e][1,2]oxaborinine-8-carboxylic acid]
P. aeruginosa PBP3 Potency (P. aeruginosa PBP3): D (D represents a potency <10 μM)
MIC (N. gonorrhoeae WHO Z): 4 to 8 µg/mL (≈ 7.06 to 14.1 µM)

CCN1CCN(C(=O)N[C@H](C(=O)N[C@H]2Cc3cccc(C(=O)O)c3OB2O)c2nc(Cl)c(C(=O)O)cc2F)C(=O)C1=O [Example 19, 6-((S)-2-(((R)-8-carboxy-2-hydroxy-3,4-dihydro-2H-benzo[e][1,2]oxaborinin-3-yl)amino)-1-(4-ethyl-2,3-dioxopiperazine-1-carboxamido)-2-oxoethyl)-2-chloro-5-fluoronicotinic acid]
P. aeruginosa PBP3 Potency (P. aeruginosa PBP3): D (D represents a potency <10 μM)

CCN1CCN(C(=O)NC(C(=O)N[C@H]2Cc3cccc(C(=O)O)c3OB2O)c2ncc(C(=O)O)cc2F)C(=O)C1=O (stereo partly drawn) [Example 20, 6-(2-(((R)-8-carboxy-2-hydroxy-3,4-dihydro-2H-benzo[e][1,2]oxaborinin-3-yl)amino)-1-(4-ethyl-2,3-dioxopiperazine-1-carboxamido)-2-oxoethyl)-5-fluoronicotinic acid]
P. aeruginosa PBP3 Potency (P. aeruginosa PBP3): D (D represents a potency <10 μM)

CCN1CCN(C(=O)NC(C(=O)N[C@H]2Cc3cccc(C(=O)O)c3OB2O)c2ccc(O)c(N(S(C)(=O)=O)S(C)(=O)=O)c2)C(=O)C1=O (stereo partly drawn) [Example 21, (3R)-3-(2-(4-ethyl-2,3-dioxopiperazine-1-carboxamido)-2-(4-hydroxy-3-(N-(methylsulfonyl)methylsulfonamido)phenyl)acetamido)-2-hydroxy-3,4-dihydro-2H-benzo[e][1,2]oxaborinine-8-carboxylic acid]
P. aeruginosa PBP3 Potency (P. aeruginosa PBP3): D (D represents a potency <10 μM)

CCN1CCN(C(=O)NC(C(=O)N[C@H]2Cc3cccc(C(=O)O)c3OB2O)c2ccc(O)c(NS(C)(=O)=O)c2)C(=O)C1=O (stereo partly drawn) [Example 22, (3R)-3-(2-(4-ethyl-2,3-dioxopiperazine-1-carboxamido)-2-(4-hydroxy-3-(methylsulfonamido)phenyl)acetamido)-2-hydroxy-3,4-dihydro-2H-benzo[e][1,2]oxaborinine-8-carboxylic acid]
P. aeruginosa PBP3 Potency (P. aeruginosa PBP3): D (D represents a potency <10 μM)

NCCN1CCN(C(=O)NC(C(=O)N[C@H]2Cc3ccc(F)c(C(=O)O)c3OB2O)c2nc(N)sc2F)C(=O)C1=O (stereo partly drawn) [Example 24, (3R)-3-(2-(2-amino-5-fluorothiazol-4-yl)-2-(4-(2-aminoethyl)-2,3-dioxopiperazine-1-carboxamido)acetamido)-7-fluoro-2-hydroxy-3,4-dihydro-2H-benzo[e][1,2]oxaborinine-8-carboxylic acid]
P. aeruginosa PBP3 Potency (P. aeruginosa PBP3): B (B represents a potency between 30 μM and 500 μM inclusive)

CCN1CCN(C(=O)NC(C(=O)N[C@H]2Cc3cccc(C(=O)O)c3OB2O)c2ccc(O)c(N)c2)C(=O)C1=O (stereo partly drawn) [Example 29, (3R)-3-(2-(3-amino-4-hydroxyphenyl)-2-(4-ethyl-2,3-dioxopiperazine-1-carboxamido)acetamido)-2-hydroxy-3,4-dihydro-2H-benzo[e][1,2]oxaborinine-8-carboxylic acid]
P. aeruginosa PBP3 Potency (P. aeruginosa PBP3): D (D represents a potency <10 μM)

CCN1CCN(C(=O)NC(C(=O)N[C@H]2Cc3cccc(C(=O)O)c3OB2O)c2ccc(O)c(NS(N)(=O)=O)c2)C(=O)C1=O (stereo partly drawn) [Example 30, (3R)-3-(2-(4-ethyl-2,3-dioxopiperazine-1-carboxamido)-2-(4-hydroxy-3-(sulfamoylamino)phenyl)acetamido)-2-hydroxy-3,4-dihydro-2H-benzo[e][1,2]oxaborinine-8-carboxylic acid]
P. aeruginosa PBP3 Potency (P. aeruginosa PBP3): D (D represents a potency <10 μM)

N[C@@H](C(=O)N[C@H]1Cc2ccc(F)c(C(=O)O)c2OB1O)c1ccc(OS(=O)(=O)F)cc1 [Example 32, (R)-3-((R)-2-amino-2-(4-((fluorosulfonyl)oxy)phenyl)acetamido)-7-fluoro-2-hydroxy-3,4-dihydro-2H-benzo[e][1,2]oxaborinine-8-carboxylic acid]
P. aeruginosa PBP3 Potency (P. aeruginosa PBP3): A (A represents a potency of >500 μM)

NS(=O)(=O)NC(C(=O)N[C@H]1Cc2ccc(F)c(C(=O)O)c2OB1O)c1ncc(O)cc1F (stereo partly drawn) [Example 43, (3R)-7-fluoro-3-(2-(3-fluoro-5-hydroxypyridin-2-yl)-2-(sulfamoylamino)acetamido)-2-hydroxy-3,4-dihydro-2H-benzo[e][1,2]oxaborinine-8-carboxylic acid]
P. aeruginosa PBP3 Potency (P. aeruginosa PBP3): C (C represents a potency between 10 and 30 μM)

NS(=O)(=O)NC(C(=O)N[C@H]1Cc2cccc(C(=O)O)c2OB1O)c1ccc(C(=O)O)c(F)c1 (stereo partly drawn) [Example 44, (3R)-3-(2-(4-carboxy-3-fluorophenyl)-2-(sulfamoylamino)acetamido)-2-hydroxy-3,4-dihydro-2H-benzo[e][1,2]oxaborinine-8-carboxylic acid]
P. aeruginosa PBP3 Potency (P. aeruginosa PBP3): C (C represents a potency between 10 and 30 μM)

O=C(Nc1ccccc1)NC(C(=O)N[C@H]1Cc2ccc(F)c(C(=O)O)c2OB1O)c1ncc(O)cc1F (stereo partly drawn) [Example 49, (3R)-7-fluoro-3-(2-(3-fluoro-5-hydroxypyridin-2-yl)-2-(3-phenylureido)acetamido)-2-hydroxy-3,4-dihydro-2H-benzo[e][1,2]oxaborinine-8-carboxylic acid]
P. aeruginosa PBP3 Potency (P. aeruginosa PBP3): D (D represents a potency <10 μM)

CCN1CCN(C(=O)NC(C(=O)N[C@H]2Cc3cccc(C(=O)O)c3OB2O)c2ccc(N)c(F)c2)C(=O)C1=O (stereo partly drawn) [Example 50, (3R)-3-(2-(4-amino-3-fluorophenyl)-2-(4-ethyl-2,3-dioxopiperazine-1-carboxamido)acetamido)-2-hydroxy-3,4-dihydro-2H-benzo[e][1,2]oxaborinine-8-carboxylic acid]
P. aeruginosa PBP3 Potency (P. aeruginosa PBP3): D (D represents a potency <10 μM)

N=C(N)NCCN1CCN(C(=O)NC(C(=O)N[C@H]2Cc3ccc(F)c(C(=O)O)c3OB2O)c2ncc(O)cc2F)C(=O)C1=O (stereo partly drawn) [Example 51, (3R)-7-fluoro-3-(2-(3-fluoro-5-hydroxypyridin-2-yl)-2-(4-(2-guanidinoethyl)-2,3-dioxopiperazine-1-carboxamido)acetamido)-2-hydroxy-3,4-dihydro-2H-benzo[e][1,2]oxaborinine-8-carboxylic acid]
P. aeruginosa PBP3 Potency (P. aeruginosa PBP3): D (D represents a potency <10 μM)

N=C(N)NC(C(=O)N[C@H]1Cc2ccc(F)c(C(=O)O)c2OB1O)c1ncc(O)cc1F (stereo partly drawn) [Example 52, (3R)-7-fluoro-3-(2-(3-fluoro-5-hydroxypyridin-2-yl)-2-guanidinoacetamido)-2-hydroxy-3,4-dihydro-2H-benzo[e][1,2]oxaborinine-8-carboxylic acid]
P. aeruginosa PBP3 Potency (P. aeruginosa PBP3): A (A represents a potency of >500 μM)

CCN1CCN(C(=O)NC(C(=O)N[C@H]2Cc3ccc(O[C@@H]4CN[C@H](C(=O)N(C)C)C4)c(C(=O)O)c3OB2O)c2ccccc2)C(=O)C1=O (stereo partly drawn) [Example 59, (3R)-7-(((3S,5S)-5-(dimethylcarbamoyl)pyrrolidin-3-yl)oxy)-3-(2-(4-ethyl-2,3-dioxopiperazine-1-carboxamido)-2-phenylacetamido)-2-hydroxy-3,4-dihydro-2H-benzo[e][1,2]oxaborinine-8-carboxylic acid]
MIC (N. gonorrhoeae WHO Z): > 64 µg/mL
MIC (N. gonorrhoeae WHO Q): > 64 µg/mL

Reference: patent publication US20230114728A1 (Venatorx Pharmaceuticals, Inc., priority 2019, published 2023)
